Test results as given in patent US20240393292A1, “ALLERGY ANTIGEN AND EPITOPE THEREOF” (HOYU CO., LTD., priority 2019, published 2024).

System: IgE antibodies from patients
Assay: Wheat epitope mapping (2): overlapping 10-amino-acid peptide fragments shifted by one amino acid;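 for Rank of partial sequence as epitope binding to IgE antibody: key = sequence deemed particularly important within the common 15-residue sequence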;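 for epitope sequence binding to IgE antibody, rank (Key/Preferably/More preferably): key of grades: preferably = shorter partial sequence still acting as epitope; more preferably = sequence improving IgE binding; key = particularly important sequence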
Format: binding, human
In short: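 Residual binding was banded as <30% none, 30–<50% poor, 50–<70% somewhat poor and ≥70% retained, relative to the parent overlapping sequence set to 100%. Values were chemiluminescent IgE signals from patient sera after subtracting secondary-antibody-only controls. The peptides were spot-synthesised 10-mers shifted by one amino acid.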

[1] = serum of patient P14 (WDEIA), sequence without X
[2] = serum of patient P32 (WDEIA), sequence without X
[3] = serum of patient P36 (WDEIA), sequence without X
[4] = serum of patient G2 (adult, general immediate type allergy to wheat), partial sequence
[5] = serum of patient P35 (WDEIA), sequence without X
[6] = serum of patient G6 (adult, general immediate type allergy to wheat), sequence without X
[7] = serum of patient P9 (WDEIA), sequence without X
[8] = serum of patient G1 (adult, general immediate type allergy to wheat), sequence without X
[9] = serum of patient P17 (WDEIA), sequence without X
[10] = serum of patient G9 (adult, general immediate type allergy to wheat), sequence without X

In the case of “2279 (LGGIDK; REGION 1..6: note = epitope) [compound 2279]”, the “Epitope sequence binding to IgE antibody, rank of the sequence (Key/Preferably/More preferably)” value [1] is reported as “Key”.

With “1828 (LEALPKFLK; REGION 1..9: note = epitope) [compound 1828]” the “epitope sequence binding to IgE antibody, rank (Key/Preferably/More preferably)” value (serum of patient G4 (adult, general immediate type allergy to wheat)) was “Key”.

For “1429 (YLQPQQ; REGION 1..6: note = epitope) [compound 1429]”, the “Rank of partial sequence as epitope binding to IgE antibody” value (from here on “Rank of partial sequence”) [1] was “Key”.

In the case of “1634 (YNPDKVPF; REGION 1..8: note = epitope) [compound 1634]”, the “Rank of partial sequence” value [2] is reported as “Preferably”.

With “1950 (QQQFPGQQQ; REGION 1..9: note = epitope) [compound 1950]” the “epitope sequence binding to IgE antibody, rank (Key/Preferably/More preferably)” value (serum of patient P24 (WDEIA)) was “More preferably”.

With “2222 (RLLRGIRNY; REGION 1..9: note = epitope) [compound 2222]” the “Epitope sequence binding to IgE antibody, rank of the sequence (Key/Preferably/More preferably)” value (serum of patient P8 (WDEIA), sequence without X) was “Key”.

For “1930 (FPGQQQ; REGION 1..6: note = epitope) [compound 1930]”, the “epitope sequence binding to IgE antibody, rank (Key/Preferably/More preferably)” value (serum of patient P15 (WDEIA)) was “Key”.

For “2692 (YKGPTL; REGION 1..6: note = epitope) [compound 2692]”, the “Epitope sequence binding to IgE antibody, rank of the sequence” value (serum of patient P33 (WDEIA), partial sequence) was “Key”.

With “1848 (YTVRTLQRT; REGION 1..9: note = epitope) [compound 1848]” the “epitope sequence binding to IgE antibody, rank (Key/Preferably/More preferably)” value (serum of patient P16 (WDEIA)) was “More preferably”.

In the case of “1703 (EAANFT; REGION 1..6: note = epitope) [compound 1703]”, the “Rank of partial sequence” value (serum of patient P27 (WDEIA), sequence without X) is reported as “Key”.

In the case of “1648 (FVPISG; REGION 1..6: note = epitope) [compound 1648]”, the “Rank of partial sequence” value [3] is reported as “Key”.

“1818 (PKFL; REGION 1..4: note = epitope) [compound 1818]” was tested, and the “epitope sequence binding to IgE antibody, rank (Key/Preferably/More preferably)” value (serum of patient P32 (WDEIA)) was “Key”.

“2493 (SSQVSF; REGION 1..6: note = epitope) [compound 2493]” was tested, and the “Epitope sequence binding to IgE antibody, rank of the sequence” value (serum of patient P2 (WDEIA), partial sequence) was “Preferably”.

With “2507 (SQVSF; REGION 1..5: note = epitope) [compound 2507]” the “Epitope sequence binding to IgE antibody, rank of the sequence” value (serum of patient P20 (WDEIA), partial sequence) was “Key”.

In the case of “2741 (GIGTVPVGRV; REGION 1..10: note = epitope) [compound 2741]”, the “Epitope sequence binding to IgE antibody, rank of the sequence” value (serum of patient P31 (WDEIA), partial sequence) is reported as “Key”.

In the case of “2530 (FQPSQLNP; REGION 1..8: note = epitope) [compound 2530]”, the “Epitope sequence binding to IgE antibody, rank of the sequence” value [4] is reported as “Preferably”.

For “2453 (LKAWSGK; REGION 1..7: note = epitope) [compound 2453]”, the “Epitope sequence binding to IgE antibody, rank of the sequence (Key/Preferably/More preferably)” value [5] was “Preferably”.

With “1780 (YLKKVG; REGION 1..6: note = epitope) [compound 1780]” the “epitope sequence binding to IgE antibody, rank (Key/Preferably/More preferably)” value (serum of patient G3 (adult, general immediate type allergy to wheat)) was “Key”.

For “1239 (QQQPIQQQP; REGION 1..9: note = epitope) [compound 1239]”, the “Epitope sequence binding to IgE antibody, rank of the sequence” value (serum of patient P24 (WDEIA), sequence without X) was “Preferably”.

With “1488 (YLQPQQPIS; REGION 1..9: note = epitope) [compound 1488]” the “Rank of partial sequence” value [5] was “Key”.

“2605 (QLVQ; REGION 1..4: note = epitope) [compound 2605]” was tested, and the “Epitope sequence binding to IgE antibody, rank of the sequence” value (serum of patient G3 (adult, general immediate type allergy to wheat), partial sequence) was “Key”.

“1526 (VQQQ; REGION 1..4: note = epitope) [compound 1526]” was tested, and the “Rank of partial sequence” value (serum of patient P10 (WDEIA), sequence without X) was “Key”.

For “2263 (SRLLR; REGION 1..5: note = epitope) [compound 2263]”, the “Epitope sequence binding to IgE antibody, rank of the sequence (Key/Preferably/More preferably)” value [6] was “Key”.

For “1759 (YLKK; REGION 1..4: note = epitope) [compound 1759]”, the “epitope sequence binding to IgE antibody, rank (Key/Preferably/More preferably)” value (serum of patient P17 (WDEIA)) was “Key”.

With “1378 (QQPLPPQQQP; REGION 1..10: note = epitope) [compound 1378]” the “Epitope sequence binding to IgE antibody, rank of the sequence” value [7] was “Preferably”.

For “2415 (IDRCAYV; REGION 1..7: note = epitope) [compound 2415]”, the “Epitope sequence binding to IgE antibody, rank of the sequence (Key/Preferably/More preferably)” value (serum of patient G7 (adult, general immediate type allergy to wheat), sequence without X) was “Preferably”.

With “1893 (YTVRTLQRT; REGION 1..9: note = epitope) [compound 1893]” the “epitope sequence binding to IgE antibody, rank (Key/Preferably/More preferably)” value (serum of patient G9 (adult, general immediate type allergy to wheat)) was “Preferably”.

“1185 (QQFPPQQP; REGION 1..8: note = epitope) [compound 1185]” was tested, and the “Epitope sequence binding to IgE antibody, rank of the sequence” value (serum of patient P19 (WDEIA), sequence without X) was “Key”.

In the case of “2597 (QQSTYQLV; REGION 1..8: note = epitope) [compound 2597]”, the “Epitope sequence binding to IgE antibody, rank of the sequence” value (serum of patient P53 (child, general immediate type allergy to wheat), partial sequence) is reported as “Key”.

In the case of “1641 (YNPDKVP; REGION 1..7: note = epitope) [compound 1641]”, the “Rank of partial sequence” value [5] is reported as “Preferably”.

For “1493 (YLQPQQPIS; REGION 1..9: note = epitope) [compound 1493]”, the “Rank of partial sequence” value [3] was “Key”.

With “2230 (IRNYRV; REGION 1..6: note = epitope) [compound 2230]” the “Epitope sequence binding to IgE antibody, rank of the sequence (Key/Preferably/More preferably)” value (serum of patient P21 (WDEIA), sequence without X) was “Key”.

“1659 (YNPDKVPF; REGION 1..8: note = epitope) [compound 1659]” was tested, and the “Rank of partial sequence” value [8] was “Preferably”.

With “1645 (YNPDKVPFV; REGION 1..9: note = epitope) [compound 1645]” the “Rank of partial sequence” value [3] was “More preferably”.

With “1492 (YLQPQQPISQ; REGION 1..10: note = epitope) [compound 1492]” the “Rank of partial sequence” value [3] was “Preferably”.

In the case of “1320 (NVEN; REGION 1..4: note = epitope) [compound 1320]”, the “Epitope sequence binding to IgE antibody, rank of the sequence” value [9] is reported as “Key”.

In the case of “1718 (EAANFT; REGION 1..6: note = epitope) [compound 1718]”, the “epitope sequence binding to IgE antibody, rank (Key/Preferably/More preferably)” value (serum of patient P36 (WDEIA)) is reported as “More preferably”.

For “2246 (SRLLR; REGION 1..5: note = epitope) [compound 2246]”, the “Epitope sequence binding to IgE antibody, rank of the sequence (Key/Preferably/More preferably/Further preferably)” value (serum of patient P50 (child, general immediate type allergy to wheat), sequence without X) was “Key”.

In the case of “2738 (VPVGR; REGION 1..5: note = epitope) [compound 2738]”, the “Epitope sequence binding to IgE antibody, rank of the sequence” value (serum of patient P30 (WDEIA), partial sequence) is reported as “Key”.

With “1918 (QVPLVQQQQ; REGION 1..9: note = epitope) [compound 1918]” the “epitope sequence binding to IgE antibody, rank (Key/Preferably/More preferably)” value (serum of patient P10 (WDEIA)) was “Preferably”.

“2699 (YKGPTL; REGION 1..6: note = epitope) [compound 2699]” was tested, and the “Epitope sequence binding to IgE antibody, rank of the sequence” value (serum of patient G8 (adult, general immediate type allergy to wheat), partial sequence) was “Key”.

In the case of “2671 (AEMNKRSFK; REGION 1..9: note = epitope) [compound 2671]”, the “Epitope sequence binding to IgE antibody, rank of the sequence” value (serum of patient G5 (adult, general immediate type allergy to wheat), partial sequence) is reported as “Key”.

With “1773 (EVSSYLKK; REGION 1..8: note = epitope) [compound 1773]” the “epitope sequence binding to IgE antibody, rank (Key/Preferably/More preferably)” value (serum of patient P55 (child, general immediate type allergy to wheat)) was “Key”.

“1677 (PFVPISG; REGION 1..7: note = epitope) [compound 1677]” was tested, and the “Rank of partial sequence” value (serum of patient G5 (adult, general immediate type allergy to wheat), sequence without X) was “Key”.

“2528 (SSQVSF; REGION 1..6: note = epitope) [compound 2528]” was tested, and the “Epitope sequence binding to IgE antibody, rank of the sequence” value [4] was “Key”.

“1218 (PIQQQP; REGION 1..6: note = epitope) [compound 1218]” was tested, and the “Epitope sequence binding to IgE antibody, rank of the sequence” value [7] was “Preferably”.

“2306 (GIDK; REGION 1..4: note = epitope) [compound 2306]” was tested, and the “Epitope sequence binding to IgE antibody, rank of the sequence (Key/Preferably/More preferably)” value [10] was “Key”.

For “2305 (LGGIDK; REGION 1..6: note = epitope) [compound 2305]”, the “Epitope sequence binding to IgE antibody, rank of the sequence (Key/Preferably/More preferably)” value [10] was “Preferably”.

With “2262 (RNYRVAI; REGION 1..7: note = epitope) [compound 2262]” the “Epitope sequence binding to IgE antibody, rank of the sequence (Key/Preferably/More preferably)” value [8] was “Key”.

In the case of “1540 (VQQQQFLG; REGION 1..8: note = epitope) [compound 1540]”, the “Rank of partial sequence” value [9] is reported as “Preferably”.

With “1339 (INVEN; REGION 1..5: note = epitope) [compound 1339]” the “Epitope sequence binding to IgE antibody, rank of the sequence” value [2] was “Preferably”.

In the case of “1741 (SQVIIM; REGION 1..6: note = epitope) [compound 1741]”, the “epitope sequence binding to IgE antibody, rank (Key/Preferably/More preferably)” value (serum of patient G1 (adult, general immediate type allergy to wheat)) is reported as “Key”.

For “2339 (AIIYS; REGION 1..5: note = epitope) [compound 2339]”, the “Epitope sequence binding to IgE antibody, rank of the sequence (Key/Preferably/More preferably)” value [6] was “Key”.
